# Test results as given in patent US20210017295A1, “BISPECIFIC BINDING AGENTS AND USES THEREOF” (MEMORIAL SLOAN KETTERING CANCER CENTER, priority 2018, published 2021).
# Where “and” joins values, the source holds several entries; their conditions need not be identical. Equal values may be shown once. Read-outs that look alike come from different tables or passages of the source.
# System: s.c. HER2(+) BT-474 tumors
# Type: in vivo, mouse
# Conditions: 24 h p.i.
# [1] = PRIT + CA 62.5 μg, 55.5 MBq (~300 pmol), mean ± SEM
# [2] = PRIT + CA 62.5 μg, ~5.6 MBq (~30 pmol), mean ± SEM
# [3] = PRIT, CA 0% (saline), mean ± SD
# [4] = PRIT, CA 7.5% w/w 18.75 μg, mean ± SD
# [5] = PRIT, CA 14% w/w 37.5 μg, mean ± SD
# [6] = PRIT, CA 28% w/w 70 μg, mean ± SD
smiles,measurement,setting,value
Nc1ccc(CC2CN(CC(=O)[O-])CCN(CC(=O)[O-])CCN(CC(=O)[O-])CCN2CC(=O)[O-])cc1.[177Lu+3] (centres unmarked) [^177Lu-DOTA-Bn],^177Lu activity in Blood,[1],0.29±0.05 % IA/g
same,^177Lu activity in Bone,[1],0.04 ± 0.01 % IA/g
same,^177Lu activity in Heart,[1],0.11 ± 0.02 % IA/g
same,^177Lu activity in Kidneys,[1],0.56±0.08 % IA/g
same,^177Lu activity in Large Int.,[1],0.20 ± 0.11 % IA/g
same,^177Lu activity in Liver,[1],0.33 ± 0.04 % IA/g
same,^177Lu activity in Lungs,[1],0.20 ± 0.02 % IA/g
same,^177Lu activity in Muscle,[1],0.04 ± 0.01 % IA/g
same,^177Lu activity in Small Int.,[1],0.05 ± 0.01 % IA/g
same,^177Lu activity in Spleen,[1],0.22 ± 0.07 % IA/g
same,^177Lu activity in Stomach,[1],0.04 ± 0.01 % IA/g
same,^177Lu activity in Tumor,[1],5.53±0.27 % IA/g
same,^177Lu activity in Blood,[2],0.28±0.09 % IA/g
same,^177Lu activity in Bone,[2],0.04 ± 0.01 % IA/g
same,^177Lu activity in Heart,[2],0.07 ± 0.02 % IA/g
same,^177Lu activity in Kidneys,[2],0.73±0.05 % IA/g
same,^177Lu activity in Large Int.,[2],0.18 ± 0.01 % IA/g
same,^177Lu activity in Liver,[2],0.27 ± 0.07 % IA/g
same,^177Lu activity in Lungs,[2],0.20 ± 0.05 % IA/g
same,^177Lu activity in Muscle,[2],0.06 ± 0.01 % IA/g
same,^177Lu activity in Small Int.,[2],0.05 ± 0.01 % IA/g
same,^177Lu activity in Spleen,[2],0.60 ± 0.21 % IA/g
same,^177Lu activity in Stomach,[2],0.06 ± 0.01 % IA/g
same,^177Lu activity in Tumor,[2],7.58±0.78 % IA/g
same,^177Lu activity in Blood,"PRIT + no CA, mean ± SEM",4.95 ± 0.58 % IA/g
same,^177Lu activity in Bone,"PRIT + no CA, mean ± SEM",0.39 ± 0.08 % IA/g
same,^177Lu activity in Heart,"PRIT + no CA, mean ± SEM",1.14 ± 0.14 % IA/g
same,^177Lu activity in Kidneys,"PRIT + no CA, mean ± SEM",2.31 ± 0.26 % IA/g
same,^177Lu activity in Large Int.,"PRIT + no CA, mean ± SEM",0.58 ± 0.06 % IA/g
same,^177Lu activity in Liver,"PRIT + no CA, mean ± SEM",1.85 ± 0.15 % IA/g
same,^177Lu activity in Lungs,"PRIT + no CA, mean ± SEM",2.11 ± 0.23 % IA/g
same,^177Lu activity in Muscle,"PRIT + no CA, mean ± SEM",0.38 ± 0.04 % IA/g
same,^177Lu activity in Small Int.,"PRIT + no CA, mean ± SEM",0.58 ± 0.06 % IA/g
same,^177Lu activity in Spleen,"PRIT + no CA, mean ± SEM",1.00 ± 0.11 % IA/g
same,^177Lu activity in Stomach,"PRIT + no CA, mean ± SEM",0.34 ± 0.04 % IA/g
same,^177Lu activity in Tumor,"PRIT + no CA, mean ± SEM",19.94±1.7 % IA/g and 19.94 ± 1.77 % IA/g
same,"Tumor-to-tissue ratio, Blood",[3],4.0±1.2
same,"Tumor-to-tissue ratio, Bone",[3],50.8 ± 22.7
same,"Tumor-to-tissue ratio, Heart",[3],17.5 ± 5.4
same,"Tumor-to-tissue ratio, Kidneys",[3],8.6 ± 2.5
same,"Tumor-to-tissue ratio, Large Int.",[3],34.4 ± 9.3
same,"Tumor-to-tissue ratio, Liver",[3],10.8 ± 2.6
same,"Tumor-to-tissue ratio, Lungs",[3],9.5 ± 2.6
same,"Tumor-to-tissue ratio, Muscle",[3],52.1 ± 15.2
same,"Tumor-to-tissue ratio, Small Int.",[3],34.5 ± 9.3
same,"Tumor-to-tissue ratio, Spleen",[3],19.9 ± 5.5
same,"Tumor-to-tissue ratio, Stomach",[3],59.1 ± 18.8
same,^177Lu activity in Blood,[3],4.95±1.17 % IA/g
same,^177Lu activity in Bone,[3],0.39 ± 0.16 % IA/g
same,^177Lu activity in Heart,[3],1.14 ± 0.29 % IA/g
same,^177Lu activity in Kidneys,[3],2.31 ± 0.52 % IA/g
same,^177Lu activity in Large Int.,[3],0.58 ± 0.12 % IA/g
same,^177Lu activity in Liver,[3],1.85 ± 0.30 % IA/g
same,^177Lu activity in Lungs,[3],2.11 ± 0.45 % IA/g
same,^177Lu activity in Muscle,[3],0.38 ± 0.09 % IA/g
same,^177Lu activity in Small Int.,[3],0.58 ± 0.12 % IA/g
same,^177Lu activity in Spleen,[3],1.00 ± 0.21 % IA/g
same,^177Lu activity in Stomach,[3],0.34 ± 0.09 % IA/g
same,^177Lu activity in Tumor,[3],19.94±3.54 % IA/g
same,"Tumor-to-tissue ratio, Blood",[4],7.1 ± 4.1
same,"Tumor-to-tissue ratio, Bone",[4],80.6 ± 61.9
same,"Tumor-to-tissue ratio, Heart",[4],16.0 ± 9.6
same,"Tumor-to-tissue ratio, Kidneys",[4],9.7 ± 6.0
same,"Tumor-to-tissue ratio, Large Int.",[4],29.9 ± 10.7
same,"Tumor-to-tissue ratio, Liver",[4],15.0 ± 7.8
same,"Tumor-to-tissue ratio, Lungs",[4],15.8 ± 7.9
same,"Tumor-to-tissue ratio, Muscle",[4],67.5 ± 20.1
same,"Tumor-to-tissue ratio, Small Int.",[4],33.7 ± 19.2
same,"Tumor-to-tissue ratio, Spleen",[4],12.6 ± 3.3
same,"Tumor-to-tissue ratio, Stomach",[4],59.2 ± 17.0
same,^177Lu activity in Blood,[4],1.03 ± 0.58 % IA/g
same,^177Lu activity in Bone,[4],0.09 ± 0.07 % IA/g
same,^177Lu activity in Heart,[4],0.45 ± 0.27 % IA/g
same,^177Lu activity in Kidneys,[4],0.75 ± 0.46 % IA/g
same,^177Lu activity in Large Int.,[4],0.24 ± 0.08 % IA/g
same,^177Lu activity in Liver,[4],0.49 ± 0.25 % IA/g
same,^177Lu activity in Lungs,[4],0.46 ± 0.23 % IA/g
same,^177Lu activity in Muscle,[4],0.11 ± 0.03 % IA/g
same,^177Lu activity in Small Int.,[4],0.22 ± 0.12 % IA/g
same,^177Lu activity in Spleen,[4],0.58 ± 0.14 % IA/g
same,^177Lu activity in Stomach,[4],0.12 ± 0.03 % IA/g
same,^177Lu activity in Tumor,[4],7.26 ± 0.55 % IA/g
same,"Tumor-to-tissue ratio, Blood",[5],13.1 ± 5.1
same,"Tumor-to-tissue ratio, Bone",[5],159.0 ± 66.7
same,"Tumor-to-tissue ratio, Heart",[5],45.1 ± 18.9
same,"Tumor-to-tissue ratio, Kidneys",[5],8.7 ± 3.2
same,"Tumor-to-tissue ratio, Large Int.",[5],18.9 ± 10.9
same,"Tumor-to-tissue ratio, Liver",[5],14.6 ± 5.3
same,"Tumor-to-tissue ratio, Lungs",[5],19.6 ± 7.4
same,"Tumor-to-tissue ratio, Muscle",[5],84.5 ± 37.6
same,"Tumor-to-tissue ratio, Small Int.",[5],39.8 ± 21.2
same,"Tumor-to-tissue ratio, Spleen",[5],9.8 ± 4.4
same,"Tumor-to-tissue ratio, Stomach",[5],50.1 ± 20.7
same,^177Lu activity in Blood,[5],0.52 ± 0.08 % IA/g
same,^177Lu activity in Bone,[5],0.04 ± 0.01 % IA/g
same,^177Lu activity in Heart,[5],0.15 ± 0.03 % IA/g
same,^177Lu activity in Kidneys,[5],0.78 ± 0.09 % IA/g
same,^177Lu activity in Large Int.,[5],0.36 ± 0.16 % IA/g
same,^177Lu activity in Liver,[5],0.46 ± 0.04 % IA/g
same,^177Lu activity in Lungs,[5],0.35 ± 0.05 % IA/g
same,^177Lu activity in Muscle,[5],0.08 ± 0.02 % IA/g
same,^177Lu activity in Small Int.,[5],0.17 ± 0.07 % IA/g
same,^177Lu activity in Spleen,[5],0.69 ± 0.20 % IA/g
same,^177Lu activity in Stomach,[5],0.14 ± 0.03 % IA/g
same,^177Lu activity in Tumor,[5],6.76 ± 2.39 % IA/g
same,"Tumor-to-tissue ratio, Blood",[6],25.6 ± 13.9
same,"Tumor-to-tissue ratio, Bone",[6],63.5 ± 97.0
same,"Tumor-to-tissue ratio, Heart",[6],63.5 ± 35.2
same,"Tumor-to-tissue ratio, Kidneys",[6],9.4 ± 4.3
same,"Tumor-to-tissue ratio, Large Int.",[6],37.7 ± 18.5
same,"Tumor-to-tissue ratio, Liver",[6],21.2 ± 9.7
same,"Tumor-to-tissue ratio, Lungs",[6],28.5 ± 14.3
same,"Tumor-to-tissue ratio, Muscle",[6],84.6 ± 45.2
same,"Tumor-to-tissue ratio, Small Int.",[6],99.7 ± 47.9
same,"Tumor-to-tissue ratio, Spleen",[6],9.6 ± 4.9
same,"Tumor-to-tissue ratio, Stomach",[6],133.0 ± 76.7
same,^177Lu activity in Blood,[6],0.27 ± 0.08 % IA/g
same,^177Lu activity in Bone,[6],0.11 ± 0.16 % IA/g
same,^177Lu activity in Heart,[6],0.11 ± 0.04 % IA/g
